Experimental data as given in PubChem BioAssay (NCI).
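Growth conditions: 96-well plates. Treatment: test compound, 48 hours, 5 concentrations. Analysis: linear interpolation between bracketing concentrations; unreached endpoints set to highest concentration. Definition used: TGI = concentration required for complete inhibition of growth.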

Tests used:
Experiment in all cases: growth of human tumour cells (NCI), 48 h
[1] = system: COLO 205 colon
[2] = system: CAKI-1 renal
[3] = system: IGROV1 ovarian
[4] = system: SF-295 CNS
[5] = system: NCI-H460 lung
[6] = system: MALME-3M melanoma
[7] = system: SNB-75 CNS
[8] = system: HCT-15 colon
[9] = system: PC-3 prostate
[10] = system: SF-268 CNS
[11] = system: LOX IMVI melanoma
[12] = system: NCI-H522 lung
[13] = system: HCC-2998 colon
[14] = system: SK-MEL-2 melanoma
[15] = system: OVCAR-5 ovarian
[16] = system: RXF 393 renal
[17] = system: HT29 colon
[18] = system: U251 CNS
[19] = system: NCI/ADR-RES ovarian
[20] = system: MDA-N
[21] = system: A498 renal
[22] = system: CCRF-CEM leukemia
[23] = system: RPMI-8226 leukemia
[24] = system: NCI-H226 lung
[25] = system: ACHN renal
[26] = system: SF-539 CNS
[27] = system: M14 melanoma
[28] = system: OVCAR-8 ovarian
[29] = system: NCI-H23 lung
[30] = system: T-47D breast
[31] = system: SN12C renal
[32] = system: 786-0 renal
[33] = system: EKVX NSCLC
[34] = system: KM12 colon
[35] = system: MDA-MB-435
[36] = system: SK-MEL-28 melanoma
[37] = system: HOP-62 NSCLC
[38] = system: HCT-116 colon
[39] = system: UACC-62 melanoma
[40] = system: MDA-MB-231 breast
[41] = system: SR leukemia
[42] = system: K-562 leukemia
[43] = system: SK-MEL-5 melanoma
[44] = system: OVCAR-4 ovarian
[45] = system: UACC-257 melanoma
[46] = system: HOP-92 NSCLC
[47] = system: DU-145 prostate
[48] = system: SNB-19 CNS
[49] = system: A549 NSCLC
[50] = system: TK-10 renal
[51] = system: HS 578T breast
[52] = system: MCF7 breast
[53] = system: SW-620 colon
[54] = system: MOLT-4 leukemia
[55] = system: SK-OV-3 ovarian
[56] = system: OVCAR-3 ovarian
[57] = system: UO-31 renal
[58] = system: BT-549 breast

Measured: TGI

N#CCC1C2CC3C(C2=O)C13 (centres undefined)
> 100 µM: [1] | [2] | [3] | [4] | [5] | [6] | [7] | [8] | [9] | [10] | [11] | [12] | [13] | [14] | [15] | [16] | [17] | [18] | [19] | [20] | [21] | [22] | [23] | [24] | [25] | [26] | [27] | [28] | [29] | [30] | [31] | [32] | [33] | [34] | [35] | [36] | [37] | [38] | [39] | [40] | [41] | [42] | [43] | [44] | [45] | [46] | [47] | [48] | [49] | [50] | [51] | [52] | [53] | [54] | [55] | [56] | [57]

CCOC(=O)Nc1n[nH]nc1Cl
> 100 µM: [1] | [2] | [3] | [5] | [6] | [7] | [8] | [9] | [10] | [11] | [12] | [13] | [14] | [15] | [16] | [58] | [17] | [18] | [19] | [20] | [21] | [23] | [24] | [26] | [27] | [28] | [29] | [30] | [31] | [32] | [33] | [34] | [35] | [36] | [37] | [38] | [39] | [40] | [42] | [43] | [44] | [45] | [47] | [49] | [50] | [51] | [52] | [53] | [54] | [55] | [56] | [57]
